# Where two headings read alike, the source gives them in different places.
# Tests used:
# [1] = system: acetic acid induced writhing in mice; assay: Acetic acid writhing assay in mice; assay type: in vivo; details: for Mean Number of writhes: in combination with Diclofenac (3 mg/kg), 30 minutes prior to i.p. 0.5% acetic acid, counted 0-20 minutes
# cocaine-trained rats [2] = details: cited from earlier work
# squirrel monkeys = details: cited from earlier work
# cocaine-trained rats [3] = details: doses of up to 3.2 mg/kg/injection; three-day substitution tests and progressive ratio tests; cited from earlier work
smiles,measurement,setting,value
COCCOCCOCCOCCO[C@H]1CC[C@@]2(O)[C@H]3Cc4ccc(OC)c5c4[C@@]2(CCN3C)[C@H]1O5 [α-6-mPEG4-O-hydroxycodone],Mean Number of writhes,[1]; dose 5 mg/kg oral,13
same,Mean Number of writhes,[1]; dose 10 mg/kg oral,4.8
COCCOCCOCCOCCOCCO[C@H]1CC[C@@]2(O)[C@H]3Cc4ccc(OC)c5c4[C@@]2(CCN3C)[C@H]1O5 [α-6-mPEG5-O-hydroxycodone],"reduction of writhings, combination versus each compound individually (FIG. 2)",[1]; combination with diclofenac (3 mg/kg),measured reduction of writhings that is greater than the number of writhings when each compound is individually administered
same,Mean Number of writhes,[1]; dose 5 mg/kg oral,7.2
same,Mean Number of writhes,[1]; dose 10 mg/kg oral,1.4
COc1ccc2c3c1O[C@H]1C(=O)CC[C@@]4(O)[C@@H](C2)N(C)CC[C@]314 [oxycodone],mean progressive ratio breakpoint,cocaine-trained rats [2]; 0.01 mg/kg/infusion,56
same,mean progressive ratio breakpoint,cocaine-trained rats [2]; 0.032 mg/kg/infusion,79
same,injection lever responses (% ILR),squirrel monkeys; 0.1 mg/kg/injection IV,100%
COc1ccc2c3c1O[C@H]1C(=O)CC[C@H]4[C@@H](C2)N(C)CC[C@]314 [hydrocodone],progressive ratio breakpoint,cocaine-trained rats [2]; 0.18 mg/kg/infusion,114
COC(=O)[C@H]1[C@@H](OC(=O)c2ccccc2)C[C@@H]2CC[C@H]1N2C [cocaine],progressive ratio breakpoint,cocaine-trained rats [2]; maintenance dose 0.56 mg/kg/infusion,128 responses
"CN1CC[C@]23c4c5ccc(O)c4O[C@H]2[C@@H](O)C=C[C@H]3[C@H]1C5 [morphine, reference compound]",injection lever responses (% ILR),squirrel monkeys; 0.03 mg/kg/injection IV,100%
COCCOCCOCCOCCOCCOCCO[C@H]1CC[C@@]2(O)[C@H]3Cc4ccc(OC)c5c4[C@@]2(CCN3C)[C@H]1O5 [α-6-mPEG6-O-hydroxycodone],Mean Number of writhes,[1]; dose 5 mg/kg oral,6.2
same,Mean Number of writhes,[1]; dose 10 mg/kg oral,4
same,reinforcing properties in progressive ratio tests,cocaine-trained rats [2]; behaved like saline,no reinforcing properties
same,progressive ratio breakpoints compared with saline,cocaine-trained rats [2]; five out of six tested doses,lower than that produced by saline
same,behavioral evidence of positive reinforcement,cocaine-trained rats [3],no behavioral evidence of positive reinforcement
same,injection lever responses (% ILR),squirrel monkeys; 0.32 mg/kg IV,22%
same,injection lever responses (% ILR),squirrel monkeys; 1.0 mg/kg IV,39%
same,injection lever responses (% ILR),squirrel monkeys; 3.2 mg/kg IV,50%
same,"exclusive injection lever responding, number of subjects","squirrel monkeys; highest dose tested, 3.2 mg/kg/injection, 3-4 subjects",only two subjects
same,reinforcing strength,squirrel monkeys; highest doses tested of 3.2 mg/kg/injection,marked reduction in reinforcing strength
same,potency in self-administration relative to oxycodone and morphine,squirrel monkeys; monkeys,significantly lower potency than oxycodone and morphine
